Here are results for 11 compounds from publication PMC9015526, “Mass Spectrometric Assays Reveal Discrepancies in Inhibition Profiles for the SARS‐CoV‐2 Papain‐Like Protease” (Chemmedchem, 2022).

Several values for one entry are separate records, joined by “and”; a condition that tells them apart may be missing. Identical values can stand only once. Like-named read-outs stand apart in the source and are kept apart here. Where only a bound is given, the exact number is not on record here.

Assay [1] has as its target T1, SARS‐CoV‐2 PL^pro (Severe acute respiratory syndrome coronavirus 2, UniProt P0DTD1). Kind of assay: biochemical.
In assay [2] the target is T1, SARS‐CoV‐2 PL^pro. To be noted: read-out: Reported IC50, cited from earlier work.
In assay [3] the target is T1, SARS‐CoV‐2 PL^pro. To be noted: Fluorescence, cited from earlier work.
The mark [4] stands for this setting: 0.2 μM PL^pro, 2.0 μM nsp2/3 peptide 2, 50 mM Tris pH 8.0, n=2, mean±SD, read-out: SPE‐MS IC50.

By IC50 is commonly meant the point on the concentration scale where inhibition reaches its midpoint. Take `Cc1ccc(-n2sc3ccccc3c2=O)cc1` [PBIT, 2‐(para‐tolyl)benzo[d]isothiazol‐3(2H)‐one]: the IC50 in assay [1] (SPE‐MS IC50) is ~0.3 µM and 0.3 µM.
For `CN(C)C/C=C/C(=O)Nc1cc2c(Nc3ccc(F)c(Cl)c3)ncnc2cc1O[C@H]1CCOC1` [afatinib], the “PL^pro inhibition in SPE‐MS assay (in words)” value (“PL^pro inhibition” below) in assay [1] was “inactive”. Further, the results for the IC50 in assay [1] (SPE‐MS IC50) and in assay [2] were over 50 µM and 11 to 16 µM, respectively.
On to `Cc1cc(O)c2c(=O)c3c(O)cc(O)c4c5c(O)cc(O)c6c(=O)c7c(O)cc(C)c8c1c2c(c34)c(c78)c65` [Hypericin], for which the “PL^pro inhibition” value in assay [1] is “did not inhibit”. The compound also yielded an IC50 in assay [1] (SPE‐MS IC50) of over 50 µM.
As to `CCOC(=O)C[C@H](NC(=O)[C@H](C)NC(=O)[C@@H](NC(=O)OCc1ccccc1)C(C)C)C(=O)COC(=O)c1c(Cl)cccc1Cl` [SDZ‐224015], in assay [1], the “PL^pro inhibition” value is listed as “does not inhibit”. The IC50 in assay [1] (setting [4]) is over 50 µM.
The term Km denotes the concentration of substrate that gives half-maximal velocity. Regarding Cbz‐RLRGG‐Amc, the Km was 6.9 ± 1.4 µM in assay [3] (ref 14) and 70.9 ± 10.2 µM in assay [3] (ref 18).
`COc1cc2ncnc(Nc3ccc(F)c(Cl)c3)c2cc1NC(=O)/C=C/CN1CCCCC1` [dacomitinib]: the “PL^pro inhibition” value in assay [1] is “inactive”. In addition, the IC50 in assay [1] (setting [4]) was over 50 µM; in assay [2] (FRET‐based assays, ref 8b), 3 to 5 µM.
On to `CC(=O)OC[C@H]1O[C@@H]([S-])[C@H](OC(C)=O)[C@@H](OC(C)=O)[C@@H]1OC(C)=O.CCP(CC)CC.[Au+]` [auranofin], for which the “PL^pro inhibition” value in assay [1] is recorded as “potently inhibit”.
With `C[C@H]1COC2=C1C(=O)C(=O)c1c2ccc2c1CCCC2(C)C` [cryptotanshinone], the “PL^pro inhibition” value in assay [1] was “did not, at least efficiently, inhibit”.
On to `CC(C)(F)C[C@H](N[C@@H](c1ccc(-c2ccc(S(C)(=O)=O)cc2)cc1)C(F)(F)F)C(=O)NC1(C#N)CC1` [MK‐0822, odanacatib], for which the “PL^pro inhibition” value in assay [1] was “does not inhibit”. Further, the IC50 in assay [1] (setting [4]) is over 50 µM.
In the case of `CC(=O)Nc1ccc(C)c(C(=O)N[C@H](C)c2cccc3ccccc23)c1` [PL^pro inhibitor 6], the IC50 in assay [1] (SPE‐MS IC50) was ~12.5 µM and 12.5 µM.
`COCCn1c2c([n+](Cc3cnccn3)c1C)C(=O)c1ccccc1C2=O` [YM‐155, sepantronium bromide] yielded an IC50 in assay [1] (SPE‐MS IC50) of over 50 µM.
